# ChEMBL document CHEMBL1269000, “Synthesis and biological evaluation of [D-lysine]8cyclosporin A analogs as potential anti-HCV agents” (Bioorg Med Chem Lett, 2010)
# Assays:
# Jurkat = test: Immunosuppressive activity against human Jurkat cells assessed as inhibition of phytohemagglutinin-M/phorbol myristate acetate-induced IL2 production; assay type: cell-based
# [1] = biological target: Peptidyl-prolyl cis-trans isomerase A (Homo sapiens, UniProt P62937); test: Binding affinity to cyclophilin A by ELISA
# [2] = Cytotoxicity against human HuH7 cells assessed as release of lactate dehydrogenase; assay type: cell-based, Huh-7; details: for IC50: Homo sapiens, Huh-7; for IC90: human, HuH7 cells
# [3] = biological target: Peptidyl-prolyl cis-trans isomerase B (Homo sapiens, UniProt P23284); test: Binding affinity to cyclophilin B by ELISA
# Hepatitis C virus = test: Antiviral activity against HCV after 72 hrs by stable luciferase reporter gene assay; assay type: functional, organism-based, Hepacivirus hominis
# Sequence of Peptidyl-prolyl cis-trans isomerase B (P23284 whole entry): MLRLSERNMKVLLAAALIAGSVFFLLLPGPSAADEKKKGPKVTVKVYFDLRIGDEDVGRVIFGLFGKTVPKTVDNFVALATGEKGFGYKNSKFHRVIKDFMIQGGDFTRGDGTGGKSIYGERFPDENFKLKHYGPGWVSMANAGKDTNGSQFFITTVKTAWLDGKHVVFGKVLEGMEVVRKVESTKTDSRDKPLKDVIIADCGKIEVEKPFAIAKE
# Sequence of Peptidyl-prolyl cis-trans isomerase A (P62937 whole entry): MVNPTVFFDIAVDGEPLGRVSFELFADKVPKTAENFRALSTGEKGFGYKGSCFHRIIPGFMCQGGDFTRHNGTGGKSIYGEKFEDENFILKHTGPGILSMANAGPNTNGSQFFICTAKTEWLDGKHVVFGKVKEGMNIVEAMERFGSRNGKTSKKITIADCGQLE
Structure (SMILES),EC50 (Jurkat) [nM],IC50 [1] [nM],IC50 [2] [nM],IC90 [2] [nM],IC50 [3] [nM],EC50 (Hepatitis C virus) [nM],EC90 (Hepatitis C virus) [nM]
C/C=C/C[C@@H](C)[C@@H](O)[C@H]1C(=O)N[C@@H](CC)C(=O)N(C)CC(=O)N(C)[C@@H](CC(C)C)C(=O)N[C@@H](C(C)C)C(=O)N(C)[C@@H](CC(C)C)C(=O)N[C@@H](C)C(=O)N[C@H](CCCCN)C(=O)N(C)[C@@H](CC(C)C)C(=O)N(C)[C@@H](CC(C)C)C(=O)N(C)[C@@H](C(C)C)C(=O)N1C,94,11.1,> 10000,> 10000,12.7,1000,2850
C/C=C/C[C@@H](C)[C@@H](O)[C@H]1C(=O)N[C@@H](CC)C(=O)N(C)CC(=O)N(C)[C@@H](CC(C)C)C(=O)N[C@@H](C(C)C)C(=O)N(C)[C@@H](CC(C)C)C(=O)N[C@@H](C)C(=O)N[C@H](CN(C)C)C(=O)N(C)[C@@H](CC(C)C)C(=O)N(C)[C@@H](CC(C)C)C(=O)N(C)[C@@H](C(C)C)C(=O)N1C,20,22.9,2050,> 10000,25.2,190,670
C/C=C/C[C@@H](C)[C@@H](O)[C@H]1C(=O)N[C@@H](CC)C(=O)N(C)CC(=O)N(C)[C@@H](CC(C)C)C(=O)N[C@@H](C(C)C)C(=O)N(C)[C@@H](CC(C)C)C(=O)N[C@@H](C)C(=O)N[C@H](CCN(C)C)C(=O)N(C)[C@@H](CC(C)C)C(=O)N(C)[C@@H](CC(C)C)C(=O)N(C)[C@@H](C(C)C)C(=O)N1C,24,46,3280,> 10000,59.5,170,300
C/C=C/C[C@@H](C)[C@@H](O)[C@H]1C(=O)N[C@@H](CC)C(=O)N(C)CC(=O)N(C)[C@@H](CC(C)C)C(=O)N[C@@H](C(C)C)C(=O)N(C)[C@@H](CC(C)C)C(=O)N[C@@H](C)C(=O)N[C@H](CCCN(C)C)C(=O)N(C)[C@@H](CC(C)C)C(=O)N(C)[C@@H](CC(C)C)C(=O)N(C)[C@@H](C(C)C)C(=O)N1C,39,35.2,2150,8730,28.9,140,380
C/C=C/C[C@@H](C)[C@@H](O)[C@H]1C(=O)N[C@@H](CC)C(=O)N(C)CC(=O)N(C)[C@@H](CC(C)C)C(=O)N[C@@H](C(C)C)C(=O)N(C)[C@@H](CC(C)C)C(=O)N[C@@H](C)C(=O)N[C@H](CCCCN(C)C)C(=O)N(C)[C@@H](CC(C)C)C(=O)N(C)[C@@H](CC(C)C)C(=O)N(C)[C@@H](C(C)C)C(=O)N1C,332,14,2810,> 10000,97.1,140,300
C/C=C/C[C@@H](C)[C@@H](O)[C@H]1C(=O)N[C@@H](CC)C(=O)N(C)CC(=O)N(C)[C@@H](CC(C)C)C(=O)N[C@@H](C(C)C)C(=O)N(C)[C@@H](CC(C)C)C(=O)N[C@@H](C)C(=O)N[C@H](CN(CC)CC)C(=O)N(C)[C@@H](CC(C)C)C(=O)N(C)[C@@H](CC(C)C)C(=O)N(C)[C@@H](C(C)C)C(=O)N1C,55,140,2680,> 10000,158,380,950
C/C=C/C[C@@H](C)[C@@H](O)[C@H]1C(=O)N[C@@H](CC)C(=O)N(C)CC(=O)N(C)[C@@H](CC(C)C)C(=O)N[C@@H](C(C)C)C(=O)N(C)[C@@H](CC(C)C)C(=O)N[C@@H](C)C(=O)N[C@H](CCN(CC)CC)C(=O)N(C)[C@@H](CC(C)C)C(=O)N(C)[C@@H](CC(C)C)C(=O)N(C)[C@@H](C(C)C)C(=O)N1C,114,65.2,1500,8620,55.9,170,350
C/C=C/C[C@@H](C)[C@@H](O)[C@H]1C(=O)N[C@@H](CC)C(=O)N(C)CC(=O)N(C)[C@@H](CC(C)C)C(=O)N[C@@H](C(C)C)C(=O)N(C)[C@@H](CC(C)C)C(=O)N[C@@H](C)C(=O)N[C@H](CCCN(CC)CC)C(=O)N(C)[C@@H](CC(C)C)C(=O)N(C)[C@@H](CC(C)C)C(=O)N(C)[C@@H](C(C)C)C(=O)N1C,134,21.4,1820,8910,17.2,150,370
C/C=C/C[C@@H](C)[C@@H](O)[C@H]1C(=O)N[C@@H](CC)C(=O)N(C)CC(=O)N(C)[C@@H](CC(C)C)C(=O)N[C@@H](C(C)C)C(=O)N(C)[C@@H](CC(C)C)C(=O)N[C@@H](C)C(=O)N[C@H](C)C(=O)N(C)[C@@H](CC(C)C)C(=O)N(C)[C@@H](CC(C)C)C(=O)N(C)[C@@H](C(C)C)C(=O)N1C [CYCLOSPORINE],6.7,–,–,–,–,370,910
C/C=C/C[C@@H](C)[C@@H](O)[C@H]1C(=O)N[C@@H](CC)C(=O)N(C)[C@H](SCCN(C)C)C(=O)N(C)[C@@H](CC(C)(C)O)C(=O)N[C@@H](C(C)C)C(=O)N(C)[C@@H](CC(C)C)C(=O)N[C@@H](C)C(=O)N[C@H](C)C(=O)N(C)[C@@H](CC(C)C)C(=O)N(C)[C@@H](CC(C)C)C(=O)N(C)[C@@H](C(C)C)C(=O)N1C [SCY 635],4210,–,> 10000,> 10000,10.3,50,240
